{"source": "patent US20220098265A1", "about": "(MEDIMMUNE LIMITED, priority 2012, published 2022)", "key": {"Rat GlucR": {"biological_target": "Rat GlucR (Rattus norvegicus, UniProt P30082)", "sequence (P30082 27-485)": "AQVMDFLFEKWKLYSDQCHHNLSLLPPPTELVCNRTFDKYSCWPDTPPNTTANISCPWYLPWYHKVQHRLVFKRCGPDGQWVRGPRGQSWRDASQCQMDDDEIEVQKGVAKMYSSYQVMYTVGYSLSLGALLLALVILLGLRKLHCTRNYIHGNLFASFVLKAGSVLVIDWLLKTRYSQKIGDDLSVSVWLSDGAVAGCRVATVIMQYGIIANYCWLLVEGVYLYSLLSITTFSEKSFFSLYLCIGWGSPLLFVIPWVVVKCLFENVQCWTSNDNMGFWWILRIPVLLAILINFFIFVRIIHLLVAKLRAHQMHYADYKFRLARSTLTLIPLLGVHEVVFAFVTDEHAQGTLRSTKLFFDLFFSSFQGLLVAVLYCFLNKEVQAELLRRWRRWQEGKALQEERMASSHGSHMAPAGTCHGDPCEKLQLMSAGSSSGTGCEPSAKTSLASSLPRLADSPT", "test": "cAMP assay 2 in […] rat serum albumin, rat GlucR", "details": "assay 2, […] Rat Serum Albumin; relative potencies vs natural ligands"}, "[1]": {"test": "Stability testing of peptides in mouse plasma", "format": "in vitro ADME", "procedure": "(§1) Stability testing of peptides in plasma. The stability in plasma of the peptides […], […], […] and […] was determined as follows. […] The frozen blank plasma from human, rat and mouse had been thawed and heated to a temperature of 37° C. before addition of the stock solution. The spiked plasma samples were gently mixed and allowed to equilibrate for about 5 minutes before start of experiment. The plasma samples were incubated for 48 hours in a Galaxy® CO2 incubator at 37° C. […] The samples were stored at -70° C. until analysis. Plasma samples were assayed as follows. The 30 μL plasma samples were protein precipitated with […] of cold ethanol in a 96-well low bind plate (Eppendorf Protein LoBind). After mixing and centrifugation 100 μl the supernatant was transferred to a new plate and 1 μl was injected onto an analytical column. The analysis was performed using a μLC-system ([…]) coupled to a medium high resolution mass spectrometer (Perkin Elmer PenTOF) with positive electrospray ionisation. […] Flow: 0.1 ml/min using a slow reversed phase gradient. […] Products with +1 mass may arise from deamidation at amide groups of glutamine or at the C-terminus. Cleavage products arise from the action of the protease DPP IV in plasma. Both the degradation of the peptides and formation of peptide products were reported in percentage of the initial peptide concentration. Peaks were integrated and % remaining peptide was calculated: […] Levels of deamidation and DPP IV cleavage were low for […] and […]."}, "human serum albumin": {"biological_target": "human serum albumin (Homo sapiens, UniProt P02768)", "sequence (P02768 25-609)": "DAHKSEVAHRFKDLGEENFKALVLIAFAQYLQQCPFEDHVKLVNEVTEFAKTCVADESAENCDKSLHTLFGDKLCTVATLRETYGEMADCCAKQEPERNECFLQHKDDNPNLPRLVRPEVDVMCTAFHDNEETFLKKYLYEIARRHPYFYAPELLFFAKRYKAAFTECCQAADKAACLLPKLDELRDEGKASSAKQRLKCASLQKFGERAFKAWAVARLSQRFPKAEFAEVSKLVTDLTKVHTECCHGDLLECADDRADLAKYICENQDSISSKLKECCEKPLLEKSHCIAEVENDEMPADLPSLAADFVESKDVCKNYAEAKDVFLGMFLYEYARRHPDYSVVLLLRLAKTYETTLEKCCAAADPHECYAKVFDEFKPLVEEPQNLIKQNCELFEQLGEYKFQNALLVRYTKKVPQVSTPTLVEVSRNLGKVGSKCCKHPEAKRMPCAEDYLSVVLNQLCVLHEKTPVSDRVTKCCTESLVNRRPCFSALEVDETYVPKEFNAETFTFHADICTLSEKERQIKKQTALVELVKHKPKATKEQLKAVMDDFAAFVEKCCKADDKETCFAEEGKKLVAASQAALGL", "test": "Fraction of free peptide at plasma concentration of albumin, calculated from variation in cAMP generation with HSA concentration", "format": "in vitro ADME", "parameters": "purchased Sigma Aldrich", "details": "calculated from variation in cAMP generation with HSA concentration"}, "Mouse GlucR": {"biological_target": "Mouse GlucR (Mus musculus, UniProt Q61606)", "sequence (Q61606 27-485)": "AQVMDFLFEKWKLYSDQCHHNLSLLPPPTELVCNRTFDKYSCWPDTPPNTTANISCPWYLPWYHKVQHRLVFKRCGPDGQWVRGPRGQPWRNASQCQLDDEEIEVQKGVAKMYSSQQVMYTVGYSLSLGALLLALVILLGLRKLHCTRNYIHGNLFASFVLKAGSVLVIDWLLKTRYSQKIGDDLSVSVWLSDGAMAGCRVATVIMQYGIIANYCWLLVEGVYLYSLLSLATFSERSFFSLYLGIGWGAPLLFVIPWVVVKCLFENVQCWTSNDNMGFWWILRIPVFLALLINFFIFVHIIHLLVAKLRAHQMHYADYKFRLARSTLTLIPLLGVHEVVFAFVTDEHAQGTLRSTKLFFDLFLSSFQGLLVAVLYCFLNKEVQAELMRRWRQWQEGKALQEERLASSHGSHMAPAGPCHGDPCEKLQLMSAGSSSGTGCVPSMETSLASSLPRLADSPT", "test": "cAMP assay 2 in […] mouse serum albumin, mouse GlucR", "details": "assay 2, […] Mouse Serum Albumin; relative potencies vs natural ligands"}, "DIO mice": {"system": "DIO mice", "test": "Diet induced obesity (DIO) mouse model, study A", "format": "in vivo", "details": "for HOMA / Hepatic TG / Plasma NEFA / Plasma TG: day 14; for FGF21 / BeHy: day 14 (dose from row order); for Glucose / Insulin: day 14, 4-hour fasting; for BeHy: beta-hydroxybutyrate", "source_text": "Female C57/B16JHsdOla (obtained from Harlan Laboratories, UK) were started on a high fat diet of D12492 (Research Diets, NJ, USA) and a chocolate confection, delicato ball (Delicata Bakverk, Sweden) at 9-11 weeks of age, and were maintained on the diet for 16 weeks prior to arrival to the animal facility, during a three week acclimatizion period and during drug treatment, caloric content of the two components of the diet is shown in Table 11. The mice were divided into 9 groups (n=5-6), and treatment was started at 29 weeks of age.\nThe body weight of the animals was monitored daily throughout the dosing period. At day 14, blood samples for the measurement of plasma glucose and insulin from conscious mice were obtained after a 4-hour fasting period. Mice were then anaesthetized using isofluorane and terminal blood was collected from the capillary bed behind the eye. The following parameters were measured: blood chemistry measurements of triglycerides, total cholesterol, non-esterified fatty acids (NEFA), beta-hydroxybutyrate and fibroblast growth factor 21 (FGF21) (Tables 14 and 15 below)."}, "[2]": {"test": "Stability testing of peptides in human plasma", "format": "in vitro ADME", "procedure": "as §1"}, "Human GlucR": {"biological_target": "Human GlucR (Homo sapiens, UniProt P47871)", "sequence (P47871 26-477)": "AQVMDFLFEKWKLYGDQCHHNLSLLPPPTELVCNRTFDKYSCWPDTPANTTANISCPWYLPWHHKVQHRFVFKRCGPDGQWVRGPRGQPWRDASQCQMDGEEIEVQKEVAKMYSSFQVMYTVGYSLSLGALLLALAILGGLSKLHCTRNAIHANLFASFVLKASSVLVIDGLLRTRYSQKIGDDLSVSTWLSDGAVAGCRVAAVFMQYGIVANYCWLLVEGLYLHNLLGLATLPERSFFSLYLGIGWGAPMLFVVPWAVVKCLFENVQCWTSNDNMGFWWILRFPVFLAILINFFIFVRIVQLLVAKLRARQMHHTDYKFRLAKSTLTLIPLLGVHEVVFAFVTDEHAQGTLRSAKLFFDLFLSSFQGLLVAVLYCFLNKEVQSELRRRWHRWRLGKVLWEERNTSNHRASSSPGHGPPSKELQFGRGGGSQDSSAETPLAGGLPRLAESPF", "test": "cAMP assay 2 in 4.4% human serum albumin, human GlucR", "details": "assay 2, 4.4% Human Serum Albumin; relative potency GlucR (vs glucagon)/relative potency GLP1R (vs GLP1)"}, "[3]": {"test": "Stability testing of peptides in rat plasma", "format": "in vitro ADME", "procedure": "Stability testing of peptides in plasma. The stability in plasma of the peptides […], […], […] and […] was determined as follows. […] The frozen blank plasma from human, rat and mouse had been thawed and heated to a temperature of 37° C. before addition of the stock solution. The spiked plasma samples were gently mixed and allowed to equilibrate for about 5 minutes before start of experiment. The plasma samples were incubated for 48 hours in a Galaxy® CO2 incubator at 37° C. […] The samples were stored at -70° C. until analysis. Plasma samples were assayed as follows. The 30 μL plasma samples were protein precipitated with […] of cold ethanol in a 96-well low bind plate (Eppendorf Protein LoBind). After mixing and centrifugation 100 μl the supernatant was transferred to a new plate and 1 μl was injected onto an analytical column. The analysis was performed using a μLC-system ([…]) coupled to a medium high resolution mass spectrometer (Perkin Elmer PenTOF) with positive electrospray ionisation. […] Flow: 0.1 ml/min using a slow reversed phase gradient. […] Products with +1 mass may arise from deamidation at amide groups of glutamine or at the C-terminus. Cleavage products arise from the action of the protease DPP IV in plasma. […] Peaks were integrated and % remaining peptide was calculated: […] […]"}, "[4]": {"test": "Peptide solubility in buffers (A280)", "details": "target 1 mg/ml"}, "physchem": {"test": "physchem", "details": "pH 7.2", "experimental": "Peptide solubility was assessed in three different isotonic formulations: • 1. […] Final formulation pH=7.2 • 2. Back up formulation 1 (BF1)=0.05M Tris, 50 mM Arginine/Proline. Final formulation pH=8.0 • 3. […] Final formulation pH=7.0"}}, "note": "Numbered stars: 1 amine (or outer) side, 2 acyl side, 3 side chain; on linkers, the order of the positions; unused ones are H or OH. Side chains are listed from the residue outwards. Peptide text beside a SMILES is read from it. * marks the point of attachment. γGlu = O=C(O)[C@H](CCC(=O)[*:2])N[*:1]; Palmitoyl = CCCCCCCCCCCCCCCC(=O)*"}
{"smiles": "CCCCCCCCCCCCCCCC(=O)N[C@@H](CCC(=O)NCCCC[C@H](NC(=O)[C@H](CCCCN)NC(=O)[C@H](CO)NC(=O)[C@H](Cc1ccc(O)cc1)NC(=O)[C@H](CC(=O)O)NC(=O)[C@H](CO)NC(=O)[C@@H](NC(=O)[C@H](Cc1ccccc1)NC(=O)[C@@H](NC(=O)CNC(=O)[C@H](CCC(N)=O)NC(=O)[C@H](CO)NC(=O)[C@@H](N)Cc1c[nH]cn1)[C@@H](C)O)[C@@H](C)O)C(=O)N[C@@H](CC(C)C)C(=O)N[C@@H](CC(=O)O)C(=O)N[C@@H](CO)C(=O)N[C@@H](CCC(=O)O)C(=O)N[C@@H](CCCNC(=N)N)C(=O)N[C@@H](C)C(=O)N[C@@H](CCCNC(=N)N)C(=O)N[C@@H](CC(=O)O)C(=O)N[C@@H](Cc1ccccc1)C(=O)N[C@H](C(=O)N[C@@H](C)C(=O)N[C@@H](Cc1c[nH]c2ccccc12)C(=O)N[C@@H](CC(C)C)C(=O)N[C@H](C(=O)N[C@@H](C)C(=O)NCC(=O)NCC(N)=O)C(C)C)C(C)C)C(=O)O", "note": "[Peptide G730] (H-HSQGTFTSDYSKK([γGlu-Palmitoyl])LDSERARDFVAWLVAGG-NH2; N-terminus assumed)", "values": [{"measurement": "Rat GlucR/GLP1R Ratio", "setting": "Rat GlucR", "result": 0.06}, {"measurement": "% +1 prod", "setting": "[1]", "result": 15, "unit": "%"}, {"measurement": "% DPP cleaved product", "setting": "[1]; Mouse Plasma at 24 h, 37° C., column % DPP cleaved product/+1 DPP cleaved product, first figure", "result": 14, "unit": "%"}, {"measurement": "% +1 DPP cleaved product", "setting": "[1]; Mouse Plasma at 24 h, 37° C., column % DPP cleaved product/+1 DPP cleaved product, second figure", "result": 5, "unit": "%"}, {"measurement": "free peptide at 4.4% HSA", "setting": "human serum albumin", "result": 0.85, "unit": "%"}, {"measurement": "Mouse GlucR/GLP1R Ratio", "setting": "Mouse GlucR", "result": 0.04}, {"measurement": "BW day 14 (% change of vehicle mean)", "setting": "DIO mice; 10 nmol/kg s.c. twice daily for 14 days", "result": "−7.5", "unit": "%"}, {"measurement": "HOMA", "setting": "DIO mice; 10 nmol/kg s.c. twice daily", "result": 3.3}, {"measurement": "Hepatic TG", "setting": "DIO mice; 10 nmol/kg s.c. twice daily", "result": 9.0, "unit": "g TG/100g Tissue"}, {"measurement": "Plasma NEFA", "setting": "DIO mice; 10 nmol/kg s.c. twice daily", "result": 0.28, "unit": "mM"}, {"measurement": "Plasma TG", "setting": "DIO mice; 10 nmol/kg s.c. twice daily", "result": 0.21, "unit": "mM"}, {"measurement": "FGF21", "setting": "DIO mice; 10 nmol/kg s.c. twice daily", "result": 1963, "unit": "pg/mL"}, {"measurement": "Glucose", "setting": "DIO mice; 10 nmol/kg s.c. twice daily", "result": 7.2, "unit": "mM"}, {"measurement": "Insulin", "setting": "DIO mice; 10 nmol/kg s.c. twice daily", "result": 0.4, "unit": "nM"}, {"measurement": "BW day 14 (% change of vehicle mean)", "setting": "DIO mice; 20 nmol/kg s.c. twice daily for 14 days", "result": "−15.6", "unit": "%"}, {"measurement": "HOMA", "setting": "DIO mice; 20 nmol/kg s.c. twice daily", "result": 1.7}, {"measurement": "Hepatic TG", "setting": "DIO mice; 20 nmol/kg s.c. twice daily", "result": 17.7, "unit": "g TG/100g Tissue"}, {"measurement": "Plasma NEFA", "setting": "DIO mice; 20 nmol/kg s.c. twice daily", "result": 0.26, "unit": "mM"}, {"measurement": "Plasma TG", "setting": "DIO mice; 20 nmol/kg s.c. twice daily", "result": 0.2, "unit": "mM"}, {"measurement": "FGF21", "setting": "DIO mice; 20 nmol/kg s.c. twice daily", "result": 2236, "unit": "pg/mL"}, {"measurement": "Glucose", "setting": "DIO mice; 20 nmol/kg s.c. twice daily", "result": 6.7, "unit": "mM"}, {"measurement": "Insulin", "setting": "DIO mice; 20 nmol/kg s.c. twice daily", "result": 0.2, "unit": "nM"}, {"measurement": "insulin sensitivity index HOMA", "setting": "DIO mice; 20 nmol/kg, result in words", "result": "significantly improved"}, {"measurement": "change in weight at day 14 as compared to the vehicle-treated animals", "setting": "DIO mice; 50 nmol/kg", "result": "about 24%"}, {"measurement": "BW day 14 (% change of vehicle mean)", "setting": "DIO mice; 50 nmol/kg s.c. twice daily for 14 days", "result": "−24.0", "unit": "%"}, {"measurement": "HOMA", "setting": "DIO mice; 50 nmol/kg s.c. twice daily", "result": 2.1}, {"measurement": "Hepatic TG", "setting": "DIO mice; 50 nmol/kg s.c. twice daily", "result": 28.1, "unit": "g TG/100g Tissue"}, {"measurement": "Plasma NEFA", "setting": "DIO mice; 50 nmol/kg s.c. twice daily", "result": 0.32, "unit": "mM"}, {"measurement": "Plasma TG", "setting": "DIO mice; 50 nmol/kg s.c. twice daily", "result": 0.23, "unit": "mM"}, {"measurement": "FGF21", "setting": "DIO mice; 50 nmol/kg s.c. twice daily", "result": 5294, "unit": "pg/mL"}, {"measurement": "Glucose", "setting": "DIO mice; 50 nmol/kg s.c. twice daily", "result": 5.9, "unit": "mM"}, {"measurement": "Insulin", "setting": "DIO mice; 50 nmol/kg s.c. twice daily", "result": 0.3, "unit": "nM"}, {"measurement": "Total plasma cholesterol", "setting": "DIO mice; at all doses, result in words", "result": "lowered"}, {"measurement": "BeHy", "setting": "DIO mice; 10 nmol/kg s.c. twice daily", "result": 428, "unit": "µmol/L"}, {"measurement": "BeHy", "setting": "DIO mice; 20 nmol/kg s.c. twice daily", "result": 750, "unit": "µmol/L"}, {"measurement": "BeHy", "setting": "DIO mice; 50 nmol/kg s.c. twice daily", "result": 1477, "unit": "µmol/L"}, {"measurement": "effect on body weight over the 14 day dosing period", "setting": "DIO mice; study A, FIGS. 1-4", "result": "dose dependent and continuous weight loss"}, {"measurement": "glucose levels at day 14", "setting": "DIO mice; study A, result in words", "result": "dose-dependent reduction"}, {"measurement": "% +1 prod", "setting": "[2]", "result": "<1", "unit": "%"}, {"measurement": "% DPP cleaved product/+1 DPP cleaved product", "setting": "[2]", "result": "<1", "unit": "%"}, {"measurement": "Human GlucR/GLP1R Ratio", "setting": "Human GlucR", "result": 0.122}, {"measurement": "% +1 prod", "setting": "[3]", "result": 58, "unit": "%"}, {"measurement": "% DPP cleaved product/+1 DPP cleaved product", "setting": "[3]", "result": 2, "unit": "%"}, {"measurement": "Conc. (mg/ml) A280", "setting": "[4]; Glutamate pH 4.5, 100 mM", "result": 0.83, "unit": "mg/mL"}, {"measurement": "Conc. (mg/ml) A280", "setting": "[4]; Phosphate pH 6.5, 100 mM", "result": 0.83, "unit": "mg/mL"}, {"measurement": "Conc. (mg/ml) A280", "setting": "[4]; Phosphate pH 7.5, 100 mM", "result": 0.85, "unit": "mg/mL"}, {"measurement": "Conc. (mg/ml) A280", "setting": "[4]; Phosphate, pH = 6, 100 mM", "result": 0.14, "unit": "mg/mL"}, {"measurement": "Conc. (mg/ml) A280", "setting": "[4]; Tris pH 7.5, 100 mM", "result": 0.83, "unit": "mg/mL"}, {"measurement": "Conc. (mg/ml) A280", "setting": "[4]; Tris pH 8.0, 100 mM", "result": 1.1, "unit": "mg/mL"}, {"measurement": "solubility", "setting": "physchem", "result": "≥ 5000", "unit": "µg/mL"}]}
